According to BindingDB's records for doi:10.1021/bi990204w (National Institute of Diabetes and Digestive and Kidney …, 1999):
Where a SMILES comes first, the peptide text is derived from it. [ ]: non-standard residue; d: D form. The star is where a group is joined. dProψ(CH2NH)PheNH2 = NC(=O)[C@H](Cc1ccccc1)NC[C@H]1CCCN1*; Hydrocinnamoyl = O=C(CCc1ccccc1)*; pGlu = O=C1CC[C@@H](C(=O)O)N1

Columns and labels:
[1] = target: Gastrin-releasing peptide receptor (Rattus norvegicus, UniProt P52500)
[2] = target: T1, Bombesin receptor subtype-3 (Homo sapiens, UniProt P32247)
T1 sequence (P32247 whole entry): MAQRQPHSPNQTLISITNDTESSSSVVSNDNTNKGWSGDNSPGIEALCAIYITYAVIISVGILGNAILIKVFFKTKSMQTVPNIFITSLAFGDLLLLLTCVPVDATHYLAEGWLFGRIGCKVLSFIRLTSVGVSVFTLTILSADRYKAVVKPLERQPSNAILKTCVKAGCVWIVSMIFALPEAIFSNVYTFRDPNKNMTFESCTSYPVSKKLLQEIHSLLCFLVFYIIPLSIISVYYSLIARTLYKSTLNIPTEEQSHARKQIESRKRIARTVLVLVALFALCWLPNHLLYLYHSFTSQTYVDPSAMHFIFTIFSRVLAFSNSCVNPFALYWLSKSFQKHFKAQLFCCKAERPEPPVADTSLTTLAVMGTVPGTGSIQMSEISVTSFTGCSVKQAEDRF

Neuromedin-B receptor = target: T2, Neuromedin-B receptor (Rattus norvegicus, UniProt P24053)
T2 sequence (P24053 whole entry): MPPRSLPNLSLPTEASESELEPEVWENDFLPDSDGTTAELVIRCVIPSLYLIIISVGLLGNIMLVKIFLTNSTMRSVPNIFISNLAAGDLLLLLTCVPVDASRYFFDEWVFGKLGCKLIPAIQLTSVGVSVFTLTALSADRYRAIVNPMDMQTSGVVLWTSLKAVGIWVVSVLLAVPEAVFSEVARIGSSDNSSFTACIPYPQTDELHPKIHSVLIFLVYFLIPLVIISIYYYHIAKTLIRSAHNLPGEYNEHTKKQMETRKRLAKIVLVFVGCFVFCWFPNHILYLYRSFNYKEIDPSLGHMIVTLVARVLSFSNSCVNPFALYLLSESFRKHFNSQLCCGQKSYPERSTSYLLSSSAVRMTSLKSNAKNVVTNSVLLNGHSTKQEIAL

Chain of Gastrin-releasing peptide receptor (P52500 whole entry N28S): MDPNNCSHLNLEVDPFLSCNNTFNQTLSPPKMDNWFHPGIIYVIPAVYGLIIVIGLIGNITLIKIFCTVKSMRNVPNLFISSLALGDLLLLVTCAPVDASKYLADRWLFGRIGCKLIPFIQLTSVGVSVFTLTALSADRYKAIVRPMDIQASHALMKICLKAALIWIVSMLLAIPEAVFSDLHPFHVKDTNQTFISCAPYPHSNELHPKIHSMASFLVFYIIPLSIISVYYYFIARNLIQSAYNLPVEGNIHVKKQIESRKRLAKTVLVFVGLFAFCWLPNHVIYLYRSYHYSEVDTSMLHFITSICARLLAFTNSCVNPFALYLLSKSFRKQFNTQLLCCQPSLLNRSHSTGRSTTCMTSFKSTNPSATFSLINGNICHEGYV

Ki [1]	Ki [2]	Ki (Neuromedin-B receptor)	SMILES
0.77 nM	6600 nM	6 nM	CSCC[C@H](NC(=O)[C@H](Cc1ccccc1)NC(=O)[C@H](Cc1cnc[nH]1)NC(=O)CNC(=O)[C@@H](NC(=O)[C@H](C)NC(=O)[C@H](Cc1c[nH]c2ccccc12)NC(=O)[C@H](CCC(N)=O)NC(=O)[C@H](CC(N)=O)NC(=O)CNC(=O)[C@H](CC(C)C)NC(=O)[C@H](CCCN=C(N)N)NC(=O)[C@H](CCC(N)=O)NC(=O)[C@@H]1CCC(=O)N1)C(C)C)C(N)=O [Bombesin,Phe13]
2 nM	6900 nM	13 nM	CSCC[C@H](NC(=O)[C@H](Cc1ccccc1)NC(=O)[C@H](Cc1c[nH]cn1)NC(=O)CNC(=O)[C@@H](NC(=O)[C@H](C)NC(=O)[C@H](Cc1c[nH]c2ccccc12)NC(=O)[C@H](CCC(N)=O)NC(=O)[C@@H]1CCCN1C(=O)[C@@H](NC(=O)[C@@H]1CCC(=O)N1)C(C)C)C(C)C)C(N)=O [CAS_29451-71-6] ([pGlu]VPQWAVGHFM-NH2)
3200 nM	7100 nM	> 10000 nM	CSCC[C@H](NC(=O)[C@H](Cc1ccccc1)NC(=O)[C@H](Cc1cnc[nH]1)NC(=O)CNC(=O)[C@@H](NC(=O)[C@H](CCCN=C(N)N)NC(=O)[C@H](Cc1c[nH]c2ccccc12)NC(=O)[C@H](CCC(N)=O)NC(=O)[C@H](CC(N)=O)NC(=O)CNC(=O)[C@H](CC(C)C)NC(=O)[C@H](CO)NC(=O)[C@H](CCC(N)=O)NC(=O)[C@@H]1CCC(=O)N1)C(C)C)C(N)=O [CAS_31362-50-2] ([pGlu]QSLGNQWRVGHFM-NH2)
	> 10000 nM	440 nM	CSCC[C@H](NC(=O)[C@H](CC(C)C)NC(=O)[C@H](Cc1c[nH]cn1)NC(=O)CNC(=O)[C@@H](NC(=O)[C@H](C)NC(=O)[C@H](Cc1c[nH]c2ccccc12)NC(=O)[C@H](Cc1c[nH]cn1)NC(=O)[C@H](CC(N)=O)NC(=O)CNC(=O)[C@H](CCCN=C(N)N)NC(=O)[C@@H]1CCCN1C(=O)[C@H](Cc1ccc(O)cc1)NC(=O)[C@H](CCSC)NC(=O)[C@H](CCCCN)NC(=O)[C@@H](NC(=O)[C@H](CC(C)C)NC(=O)[C@@H](NC(=O)[C@@H](NC(=O)CNC(=O)CNC(=O)CNC(=O)[C@H](C)NC(=O)[C@@H]1CCCN1C(=O)[C@H](CC(C)C)NC(=O)[C@@H]1CCCN1C(=O)[C@@H](N)C(C)C)[C@@H](C)O)C(C)C)[C@@H](C)O)C(C)C)C(N)=O [CAS_93755-85-2]
31 nM	3100 nM	460 nM	CSCC[C@H](NC(=O)[C@H](Cc1ccccc1)NC(=O)[C@H](Cc1c[nH]cn1)NC(=O)CNC(=O)[C@@H](NC(=O)[C@H](C)NC(=O)[C@H](Cc1c[nH]c2ccccc12)NC(=O)[C@H](CC(C)C)NC(=O)[C@@H]1CCC(=O)N1)[C@@H](C)O)C(N)=O [CAS_125988]
6 nM	4100 nM	7 nM	CSCC[C@H](NC(=O)[C@H](Cc1ccccc1)NC(=O)[C@H](Cc1c[nH]cn1)NC(=O)CNC(=O)[C@@H](NC(=O)[C@H](C)NC(=O)[C@H](Cc1c[nH]c2ccccc12)NC(=O)[C@H](CCC(N)=O)NC(=O)[C@@H]1CCC(=O)N1)C(C)C)C(N)=O [CAS_5486808]
0.74 nM		> 10000 nM	CC(C)[C@H](NC(=O)[C@H](C)NC(=O)[C@H](Cc1c[nH]c2ccccc12)NC(=O)[C@H](Cc1cnc[nH]1)NC(=O)CCc1ccccc1)C(=O)N[C@H](C)C(=O)N[C@@H](Cc1cnc[nH]1)C(=O)N1CCC[C@@H]1CN[C@@H](Cc1ccccc1)C(N)=O [CAS_l] (Hydrocinnamoyl-HWAV[dA]H-{dProψ(CH2NH)PheNH2})
430 nM	> 10000 nM	2300 nM	CC(C)C[C@H](NC(=O)[C@H](CC(C)C)NC(=O)[C@@H](Cc1ccccc1)NC(=O)CNC(=O)[C@@H](NC(=O)[C@H](C)NC(=O)[C@H](Cc1c[nH]c2ccccc12)NC(=O)[C@H](CCC(N)=O)NC(=O)[C@@H](Cc1ccccc1)NC(=O)CNC(=O)[C@H](CC(C)C)NC(=O)[C@H](CCCN=C(N)N)NC(=O)[C@H](CCC(N)=O)NC(=O)[C@@H]1CCC(=O)N1)C(C)C)C(N)=O [DPhe6,12,Leu14-Bn]
42 nM	> 10000 nM	2700 nM	CC(C)C[C@@H](CN[C@@H](Cc1ccc(Cl)cc1)C(N)=O)NC(=O)[C@H](Cc1c[nH]cn1)NC(=O)CNC(=O)[C@@H](NC(=O)[C@H](C)NC(=O)[C@H](Cc1c[nH]c2ccccc12)NC(=O)[C@H](CCC(N)=O)NC(=O)[C@H](N)Cc1ccccc1)C(C)C [DPhe6,Leu13,Psi(CH2NH),Cpa14-Bn(6-14)]
450 nM	> 10000 nM	> 10000 nM	CC(C)C[C@H](NC(=O)[C@H](Cc1cnc[nH]1)NC(=O)CNC(=O)[C@@H](NC(=O)[C@H](C)NC(=O)[C@H](Cc1c[nH]c2ccccc12)NC(=O)[C@H](CCC(N)=O)NC(=O)[C@@H](Cc1ccccc1)NC(=O)CNC(=O)[C@H](CC(C)C)NC(=O)[C@H](CCCN=C(N)N)NC(=O)[C@H](CCC(N)=O)NC(=O)[C@@H]1CCC(=O)N1)C(C)C)C(N)=O [DPhe6-Bn(1-13)NH2]
27 nM	> 10000 nM	> 10000 nM	CC(C)C[C@H](NC(=O)[C@H](Cc1cnc[nH]1)NC(=O)CNC(=O)[C@@H](NC(=O)[C@H](C)NC(=O)[C@H](Cc1c[nH]c2ccccc12)NC(=O)[C@H](CCC(N)=O)NC(=O)[C@H](N)Cc1ccccc1)C(C)C)C(N)=O [DPhe6-Bn(6-13)NH2]
3200 nM	> 10000 nM	> 10000 nM	CC(C)C[C@H](NC(=O)[C@H](Cc1cnc[nH]1)NC(=O)CNC(=O)[C@@H](NC(=O)[C@H](C)NC(=O)[C@H](Cc1c[nH]c2ccccc12)NC(=O)[C@H](CCC(N)=O)NC(=O)[C@H](N)Cc1ccccc1)C(C)C)C(=O)NN(C)C [DPhe6-Bn(6-13)NHN(ME)2]
100 nM	3200 nM	> 10000 nM	CCCCCCNC(=O)[C@H](CC(C)C)NC(=O)[C@H](Cc1cnc[nH]1)NC(=O)CNC(=O)[C@@H](NC(=O)[C@H](C)NC(=O)[C@H](Cc1c[nH]c2ccccc12)NC(=O)[C@H](CCC(N)=O)NC(=O)[C@H](N)Cc1ccccc1)C(C)C [DPhe6-Bn(6-13)hexylamide]
1200 nM	> 10000 nM	> 10000 nM	CC(C)C[C@H](NC(=O)[C@H](Cc1cnc[nH]1)NC(=O)CNC(=O)[C@@H](NC(=O)[C@H](C)NC(=O)[C@H](Cc1c[nH]c2ccccc12)NC(=O)[C@H](CCC(N)=O)NC(=O)[C@H](N)Cc1ccccc1)C(C)C)C(=O)NN [DPhe6-Bn(6-13)hydrazide]
10 nM	5300 nM	7700 nM	COC(=O)[C@H](CC(C)C)NC(=O)[C@H](Cc1cnc[nH]1)NC(=O)CNC(=O)[C@@H](NC(=O)[C@H](C)NC(=O)[C@H](Cc1c[nH]c2ccccc12)NC(=O)[C@H](CCC(N)=O)NC(=O)[C@H](N)Cc1ccccc1)C(C)C [DPhe6-Bn(6-13)methylester]
6 nM	1900 nM	4600 nM	CCCNC(=O)[C@H](CC(C)C)NC(=O)[C@H](Cc1cnc[nH]1)NC(=O)CNC(=O)[C@@H](NC(=O)[C@H](C)NC(=O)[C@H](Cc1c[nH]c2ccccc12)NC(=O)[C@H](CCC(N)=O)NC(=O)[C@H](N)Cc1ccccc1)C(C)C [DPhe6-Bn(6-13)propylamide]
2 nM	> 10000 nM	14 nM	CSCC[C@H](NC(=O)[C@H](CC(C)C)NC(=O)[C@H](Cc1cnc[nH]1)NC(=O)CNC(=O)[C@@H](NC(=O)[C@H](C)NC(=O)[C@H](Cc1c[nH]c2ccccc12)NC(=O)[C@H](CCC(N)=O)NC(=O)[C@H](N)Cc1ccccc1)C(C)C)C(N)=O [DPhe6-Bn[6-14)]
> 10000 nM	> 10000 nM	1900 nM	CSCC[C@H](NC(=O)[C@H](CC(C)C)NC(=O)[C@@H](Cc1ccccc1)NC(=O)CNC(=O)[C@@H](NC(=O)[C@H](C)NC(=O)[C@H](Cc1c[nH]c2ccccc12)NC(=O)[C@H](CCC(N)=O)NC(=O)[C@H](CC(N)=O)NC(=O)CNC(=O)[C@H](CC(C)C)NC(=O)[C@H](CCCN=C(N)N)NC(=O)[C@H](CCC(N)=O)NC(=O)[C@@H]1CCC(=O)N1)C(C)C)C(N)=O [Dphe12-Bn]
130 nM	> 10000 nM	> 10000 nM	CSCC[C@H](NC(=O)[C@H](CC(C)C)NC(=O)[C@H](Cc1cnc[nH]1)NC(=O)CNC(=O)[C@@H](NC(=O)[C@H](C)NC(=O)[C@H](Cc1c[nH]c2ccccc12)NC(=O)[C@H](Cc1cnc[nH]1)NC(=O)[C@H](CC(N)=O)NC(=O)CN)C(C)C)C(N)=O [GRP-10,frog]

SMILES	Ki [1]	Ki [2]	Ki (Neuromedin-B receptor)
CCCCNC(=O)[C@H](CC(C)C)NC(=O)[C@H](Cc1cnc[nH]1)NC(=O)[C@@H](C)NC(=O)[C@@H](NC(=O)[C@H](C)NC(=O)[C@H](Cc1c[nH]c2ccccc12)NC(=O)[C@H](CCC(N)=O)NC(=O)[C@H](N)Cc1ccc(O)cc1)C(C)C [DTyr6,DAla11-Bn(6-13)butylamide]	6 nM	5300 nM	2300 nM
